Data set [1] deals with liver microsomal enzyme system. The data set is described as follows: Promotion or inhibition of the liver microsomal enzyme system. It is filed as in vivo. To be noted: in words. From the text: Tests per the methods described herein have shown compounds to be either effective in the promotion or inhibition of the liver microsomal enzyme system as follows: […]
On the technique in general: Liver microsomes are vesicles of endoplasmic reticulum, rich in cytochrome P450 enzymes.

Data set [2] is described as follows: Toxicity: perished animals/tested animals. It is filed as in vivo. The source says:
Despite its disadvantageous properties, phenobarbital is widely used in the treatment of neonatal jaundice. In order to enable a better comparison, Table 8 indicates the respective dosages in which phenobarbital causes lethal respiration paralysis, while the compounds according to the invention are completely innocuous.

A further data set deals with central nervous system. Type of data set: in vivo, mice and rats. To be noted: in words; in contrast with phenobarbital. The source says:
The central nervous activities of the compounds according to the invention were examined on mice and rats with the following methods: electroshock (Swinyard, E. A., Brown, W. C., Goodman, L. S.: J. Pharmacol. Exp. Ther. 106, 319, 1952), metrazol spasm (Everett, G. M., Richards, R. K.: J. Pharmacol. Exp. Ther. 81, 402: 1944), thiosemicarbezide spasm (Da Venzo, J. P. Greig, M. E., Cormin, M. A.: Amer. J. Physiol. 201, 833: 1961), strychnine spasm (Kerley, T. L., Richards, A. G., Begley, R. W., Abreu, B. B. Wesver, L. C.: J. Pharmacol. Exp. Ther. 132, 360: 1961), nicotine spasm (Stone, C. A., Mecklenburg, K. L., Torhans, M. L.: Arch. Int. Pharmacodyn. 117, 419: 1958), rotarod test (Kinnard, W. C., Carr, C. J.: J. Pharmacol. Expt. Ther. 121, 3, 54: 1957), physistigmine lethality preventing effect (Nose, T., Kojima, M.: Europ. J. Pharmacol. 10, 83: 1970), yohimbine potentiation effect (Quinton, R. M.: Brit. J. Pharmacol. 21, 51: 1963), and analgesic activity (Bianchi, G., Franceschini, J.: Brit. J. Pharm. Chemother. 9, 280: 1954). As reference substance, phenobarbital was used. […]

Data set [3] relates to UDP-glucoronyltransferase. As to the kind of experiment: UDP-glucuronyltransferase activity of liver tissues removed from pre-treated animals (bilirubin conjugation). Type of data set: in vivo. Conditions: liver tissues of pre-treated animals incubated with bilirubin. The protocol:
In an in vivo test, liver tissues removed from animals pre-treated with compounds of the formula (I) were incubated in the presence of bilirubin, in order to determine the UDP-glucoronyltransferase activity of the liver tissues (Adlard, B. P. F., Lester, R. G., Lathe, G. H.: Biochem Pharmacol. 18, 59, 1969).

Data set [4] concerns hexobarbital oxidase. The data set is described as follows: Enzyme-inducing potency: in vivo hexobarbital oxidase activity (duration of hexobarbital narcosis). To be noted: 24 hours before hexobarbital. The arrangement: species or system Female Wistar rats. The protocol: […] 24 and 48 hours after the administration of the active agent, respectively, the animals were narcotized with 40 mg./kg. i.v. dosage of hexobarbital sodium, and the time elapsed until complete wakening was measured (Noordhock, J.: Eur. J. Pharmacol. 3, 242, 1968). The data were recorded, and the mean values, the standard errors, as well as the percentage increase with respect to the controls were calculated for each group. […] The hexobarbital concentration of the plasma, measured on the instant of wakening, was the same for both the treated and the control animals, thus the increase of narcosis period was not due to a certain central nervous interaction (Jori, A., Bianchatti, A., Presentini, P. E.: Biochem. Pharmacol. 19, 2687, 1970).
The enzyme-inducing potency of the new compounds was determined by several methods. One of these methods was the in vivo measurement of hexobarbital oxidase activity.
The decrease of narcosis period is due to the fact that the new compounds according to the invention accelerate the elimination of hexobarbital, a foreign substance, from the body. When administering the compound to be tested in a single dosage and measuring the duration of hexobarbital narcosis 24 hours after the administration, the following results are obtained: […]

The subject of data set [5] is liver microsomal enzyme system. As to the kind of experiment: Biological halving period of hexobarbital and hexobarbital concentration at wakening. It is filed as in vivo. Conditions: pre-treated 24 hours prior to hexobarbital; female rats 150 g.
The test system of a further data set is meprobamate elimination. As to the kind of experiment: Biological halving period of meprobamate after pre-treatment. It is filed as in vivo. To be noted: 24 hours after pre-treatment. As to the method:
The biological halving period of meprobamate was determined 24 hours after pre-treatment with the compounds of the formula (I) (Ludwig, B. J., Hoffman, A. J.; Arch. Biochem. 72, 234, 1957).

In data set [6] the test system is bromosulfophthalein elimination. As to the kind of experiment: Bromosulfophthalein (BSP) concentration of the plasm after pre-treatment. Type of data set: in vivo. Conditions: 24 hours after pre-treatment; after i.v. bromsulfophthaleine. The protocol: The bromosulfophthalein (BSP) concentration of the plasm was determined 24 hours after pre-treatment with the compounds of the formula (I) and after the intravenous administration of bromsulfophthaleine, respectively (Varga, F., Fisher, E.: Acta Physiol. Hung. 36, 431, 1969).

Data set [7] deals with hexobarbital oxidase. As to the kind of experiment: Enzyme inhibiting ability in vivo: change of hexobarbital oxidase activity (hexobarbital narcosis period). Further details: species or system Female Wistar rats. To be noted: in words, even 48 hours after administration. As to the method: Female Wistar rats, each weighing 80 to 100 g., were treated orally with a single 0.3 mM/kg. dosage of the active agent. 24 and 48 hours after the administration of the active agent, respectively, the animals were narcotized with 40 mg./kg. i.v. dosage of hexobarbital sodium, and the time elapsed until complete wakening was measured (Noordhock, J.: Eur. J. Pharmacol. 3, 242, 1968). The data were recorded, and the mean values, the standard errors, as well as the percentage increase with respect to the controls were calculated for each group. […] The hexobarbital concentration of the plasma, measured on the instant of wakening, was the same for both the treated and the control animals, thus the increase of narcosis period was not due to a certain central nervous interaction (Jori, A., Bianchatti, A., Presentini, P. E.: Biochem. Pharmacol. 19, 2687, 1970).

For the compound `C=CC(O)(c1ccccc1)c1ccc(Cl)c(Cl)c1` (stereo not drawn) [3,4-dichloro-α-vinylbenzhydrol, 3,4-dichloro-α-vinyl-benzhydrol], the “Potency among the enzyme inducing or inhibiting compounds” value in data set [1] was “particularly potent”.

`CCC(O)(c1ccccc1)c1ccc(Cl)cc1Cl` (stereo not drawn) [E 11, 2,4-dichloro-α-ethyl-benzhydrol]: the “Effect on the liver microsomal enzyme system (inducing or inhibiting)” value (“Effect … (inducing or inhibiting)” for short) in data set [1] is “particularly advantageous inducing effect”. The “Duration and strength of inducing effect compared with phenobarbital” value in data set [1] is given as “reaches that of phenobarbital”. For the same compound, the Perished animals/tested animals in data set [2] (40 mg./kg), in data set [2] (80 mg./kg), in [2] (160 mg./kg), in data set [2] (320 mg./kg) and in [2] (640 mg./kg) was 0/10 in each case. The Central nervous effects entry in the data set with central nervous system is listed as “no central nervous effects”. Moreover, the Conjugated bilirubine in [3] is 35.7 ± 2.8 µg/g/h. For the same compound, the “Sleeping period ± standard error” value is 22.0 ± 2.1 with hexobarbital oxidase [4] (5 mg./kg. single dosage), 16.4 ± 1.6 in the data set on hexobarbital oxidase [4] (10 mg./kg. single dosage), 15.0 ± 1.4 in the data set with hexobarbital oxidase [4] (20 mg./kg. single dosage) and 13.0 ± 1.2 with hexobarbital oxidase [4] (40 mg./kg. single dosage). In addition, in data set [5], the “t1/2 (biological halving period of hexobarbital)” value is 26 min. In the data set on meprobamate elimination, the “t1/2 (biological halving period of meprobamate)” value turned out to be 2.8 hours. Besides, in data set [6], the “BSP concentration of the plasm” value is reported as 5.4 μg./mg. plasm.

Regarding `CCC(O)(c1ccccc1)c1ccccc1OC` (stereo not drawn) [E 16, 2-methoxy-α-ethyl-benzhydrol], the “Potency among the enzyme inducing or inhibiting compounds” value in [1] is “particularly potent”. Moreover, the “Inhibition of the microsomal enzyme / xenobiotic elimination, duration” value in the data set with hexobarbital oxidase [7] was “inhibit the elimination of xenobiotic agents and the inactivation thereof in the liver for a long time”; with hexobarbital oxidase [7] (listed as 2-methoxy-α-ethylbenzhydrol), “long-lasting inhibition, the degree of which remains significant even 48 hours after administration”.

On to `CCC(O)(c1ccccc1)c1cc(C)ccc1C` (stereo not drawn) [E 20, 2,5-dimethyl-α-ethyl-benzhydrol], for which, in [1], the “Effect … (inducing or inhibiting)” value is listed as “particularly advantageous inducing effect”; the “Potency among the enzyme inducing or inhibiting compounds” value is on record as “particularly potent”; the “Duration and strength of inducing effect compared with phenobarbital” value is reported as “reaches that of phenobarbital”. For the same compound, in the data set on central nervous system, the Central nervous effects result is given as “no central nervous effects”. In addition, the Conjugated bilirubine in [3] came out at 35.1 ± 2.6 µg/g/h. Further, in the data set on hexobarbital oxidase [4] (5 mg./kg. single dosage), the “Sleeping period ± standard error” value is given as 23.8 ± 1.9. The “Sleeping period ± standard error” value with hexobarbital oxidase [4] (10 mg./kg. single dosage) is listed as 18.76 ± 1.9. In the data set on hexobarbital oxidase [4] (40 mg./kg. single dosage), the “Sleeping period ± standard error” value is on record as 13.0 ± 1.2.

As for `CCN(CC)CCOc1ccc(C(O)(CC)c2ccccc2)cc1` (stereo not drawn) [E 17, 4-(β-diethylaminoethoxy)-α-ethyl-benzhydrol], the “Potency among the enzyme inducing or inhibiting compounds” value in [1] is “particularly potent”. In addition, the “Inhibition of the microsomal enzyme / xenobiotic elimination, duration” value in the data set on hexobarbital oxidase [7] was “inhibit the elimination of xenobiotic agents and the inactivation thereof in the liver for a long time”; in the data set on hexobarbital oxidase [7] (listed as 4-(β-diethylaminoethoxy)-α-ethyl-benzhydrol), “long-lasting inhibition, the degree of which remains significant even 48 hours after administration”.

On to `C=CC(O)(c1ccccc1)c1ccc(OC)cc1OC` (stereo not drawn) [2,4-dimethoxy-α-vinylbenzhydrol, 2,4-dimethoxy-α-vinyl-benzhydrol], for which the “Potency among the enzyme inducing or inhibiting compounds” value in data set [1] is listed as “particularly potent”. Besides, the “Inhibition of the microsomal enzyme / xenobiotic elimination, duration” value in the data set with hexobarbital oxidase [7] is “long-lasting inhibition, the degree of which remains significant even 48 hours after administration”.

On to `CCC(O)(c1ccccc1)c1cccc(Cl)c1` (stereo not drawn) [E 9, 3-chloro-α-ethyl-benzhydrol], for which, in data set [1], the “Effect … (inducing or inhibiting)” value was “particularly advantageous inducing effect”. In data set [1], the “Duration and strength of inducing effect compared with phenobarbital” value is “reaches that of phenobarbital”. The Perished animals/tested animals in data set [2] (40 mg./kg), in data set [2] (80 mg./kg), in data set [2] (160 mg./kg), in [2] (320 mg./kg) and in [2] (640 mg./kg) was 0/10 throughout. Also, the Central nervous effects entry with central nervous system is on record as “no central nervous effects”. The Conjugated bilirubine in [3] turned out to be 36.7 ± 3.2 µg/g/h. The “Sleeping period ± standard error” value is given as 21.7 ± 2.0 in the data set on hexobarbital oxidase [4] (5 mg./kg. single dosage), 15.2 ± 1.4 in the data set on hexobarbital oxidase [4] (10 mg./kg. single dosage), 13.6 ± 1.4 with hexobarbital oxidase [4] (20 mg./kg. single dosage) and 12.4 ± 1.2 in the data set with hexobarbital oxidase [4] (40 mg./kg. single dosage). For the same compound, the “BSP concentration of the plasm” value in [6] is 7.6 μg./mg. plasm.

As for `C=CC(O)(c1ccccc1)c1ccccc1F` (stereo not drawn) [2-fluoro-α-vinyl-benzhydrol, 2-Fluoro-α-vinyl-benzhydrol], in data set [1], the “Effect … (inducing or inhibiting)” value is “particularly advantageous inducing effect”; the “Duration and strength of inducing effect compared with phenobarbital” value is given as “reaches that of phenobarbital”. In addition, the Central nervous effects entry with central nervous system was “no central nervous effects”.

Source of the values: patent US4094908A, “Alpha-substituted benzhydrol derivatives” (Richter Gedeon Vegyeszeti Gyar Rt., priority 1973, dated 1978).
